Measurements published in patent publication US9085576B2 (AMGEN INC., priority 2013, dated 2015).
Where two headings read alike, the source gives them in different places.

How the values were obtained:
[1] = system: Abeta 40; assay: In vivo inhibition of beta-secretase: Abeta 40 reduction in CSF and brain of the rat; settings: after 4 hrs; for % reduction of rat CSF levels (3 mpk) / % reduction of rat CSF levels at 10 pmk: Abeta 40 in rat CSF; for % reduction of rat CSF levels at 10 pmk / % reduction of rat brain levels at 10 mpk: 10 mpk; for % reduction of rat brain levels (3 mpk) / % reduction of rat brain levels at 10 mpk: Abeta 40 in rat brain
[2] = biological target: BACE (Homo sapiens (Human), UniProt P56817); assay: In vitro BACE cell-based assay (Aβ40 in conditioned medium, sandwich ELISA)
[3] = biological target: Beta Secretase enzyme (BACE) (Homo sapiens (Human), UniProt P56817); assay: In vitro enzymatic BACE FRET assay; type: biochemical; settings: read-out: BACE1 Enzyme assay IC50
[4] = biological target: Cathepsin D (Cat D) (Homo sapiens (Human), UniProt P07339); assay: In vitro enzymatic Cathepsin D (Cat D) FRET assay; type: biochemical
[5] = biological target: BACE1 (Homo sapiens (Human), UniProt P56817); settings: healthy volunteers, cited from earlier work
[6] = system: BACE1; settings: animals, orally available; cited from earlier work

Chain of Cathepsin D (Cat D) (P07339 65-412, species assumed): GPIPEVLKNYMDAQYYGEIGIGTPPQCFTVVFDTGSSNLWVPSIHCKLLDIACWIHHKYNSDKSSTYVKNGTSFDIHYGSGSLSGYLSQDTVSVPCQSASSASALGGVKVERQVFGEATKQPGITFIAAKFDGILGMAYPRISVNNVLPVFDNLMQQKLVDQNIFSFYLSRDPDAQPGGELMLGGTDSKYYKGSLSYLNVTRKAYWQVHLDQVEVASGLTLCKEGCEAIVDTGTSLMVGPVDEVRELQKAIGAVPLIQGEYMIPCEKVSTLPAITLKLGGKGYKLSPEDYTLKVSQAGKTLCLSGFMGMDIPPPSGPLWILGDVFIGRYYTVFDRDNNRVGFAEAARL
Chain of Beta Secretase enzyme (BACE) (P56817 46-501): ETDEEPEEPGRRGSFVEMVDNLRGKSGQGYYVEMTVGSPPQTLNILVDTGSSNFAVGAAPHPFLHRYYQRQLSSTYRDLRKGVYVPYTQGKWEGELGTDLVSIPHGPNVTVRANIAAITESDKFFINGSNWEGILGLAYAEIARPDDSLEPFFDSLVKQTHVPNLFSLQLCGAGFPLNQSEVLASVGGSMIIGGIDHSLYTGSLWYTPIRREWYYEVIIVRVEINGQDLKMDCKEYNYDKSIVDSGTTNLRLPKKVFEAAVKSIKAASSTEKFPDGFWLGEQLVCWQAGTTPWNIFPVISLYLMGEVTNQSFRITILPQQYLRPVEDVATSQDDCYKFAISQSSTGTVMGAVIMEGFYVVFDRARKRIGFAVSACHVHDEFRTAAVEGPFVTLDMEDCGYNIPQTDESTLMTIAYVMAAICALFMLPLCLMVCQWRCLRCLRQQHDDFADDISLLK
Chain of BACE (P56817 46-501, species assumed): as the sequence (P56817 46-501) above
Chain of BACE1 (Homo sapiens (Human), UniProt P56817) (P56817 46-501): as above

| SMILES | IC50 [2] | IC50 [3] | IC50 ([4]; read-out: CatD IC50) | IC50 ([4]; Cat D FRET assay, first procedure, read-out: Cat D IC50) | % reduction of rat CSF levels (3 mpk) [1] | % reduction of rat CSF levels at 10 pmk [1] | % reduction of rat brain levels (3 mpk) [1] | % reduction of rat brain levels at 10 mpk [1] | Aβ reductions in lumbar CSF ([5]; oral dosing of 30 or 90 mg) | safety and tolerability [5] | Aβ-lowering effects [6] |
| --- | --- | --- | --- | --- | --- | --- | --- | --- | --- | --- | --- |
| Cc1cc(C#N)cnc1C(=O)Nc1ccc(F)c([C@@]2(C(F)F)N=C(N)O[C@@H]3C[C@@H]32)c1 [Example 44, N-(3-((1R,5S,6R)-3-amino-5-(difluoromethyl)-2-oxa-4-azabicyclo[4.1.0]hept-3-en-5-yl)-4-fluorophenyl)-5-cyano-3-methylpicolinamide] | 0.017 µM | 0.0142 µM | 376 µM |  | 69 (3 mpk) % | 80% | 52 (3 mpk) % | 73% |  |  |  |
| Cc1cc(OC(F)F)cnc1C(=O)Nc1ccc(F)c([C@@]2(C(F)F)N=C(N)O[C@@H]3C[C@@H]32)c1 [Example 237, N-(3-((1R,5S,6R)-3-amino-5-(difluoromethyl)-2-oxa-4-azabicyclo[4.1.0]hept-3-en-5-yl)-4-fluorophenyl)-5-(difluoromethoxy)-3-methylpicolinamide] | 0.0323 µM | 0.0377 µM | 327 µM |  |  | 72% |  | 67% |  |  |  |
| NC1=N[C@@](c2cc(NC(=O)c3ccc(Cl)cn3)ccc2Cl)(C(F)F)[C@H]2C[C@H]2O1 [Example 99, N-(3-((1R,5S,6R)-3-amino-5-(difluoromethyl)-2-oxa-4-azabicyclo[4.1.0]hept-3-en-5-yl)-4-chlorophenyl)-5-chloropicolinamide] | 0.0195 µM | 0.0227 µM | 1050 µM |  |  | 63% |  | 58% |  |  |  |
| NC1=N[C@](CF)(c2cc(NC(=O)c3cnc(OCC(F)(F)F)cn3)cc(Cl)c2F)[C@H]2C[C@H]2O1 [Example 90, N-(3-((1R,5S,6R)-3-amino-5-(fluoromethyl)-2-oxa-4-azabicyclo[4.1.0]hept-3-en-5-yl)-5-chloro-4-fluorophenyl)-5-(2,2,2-trifluoroethoxy)pyrazine-2-carboxamide] | 0.0213 µM | 0.0136 µM | 913 µM |  |  | 48% |  | 31% |  |  |  |
| COc1cnc(C(=O)Nc2ccc(F)c([C@@]3(CF)N=C(N)O[C@@H]4C[C@@H]43)c2)c(Cl)c1 [Example 229, N-(3-((1R,5S,6R)-3-amino-5-(fluoromethyl)-2-oxa-4-azabicyclo[4.1.0]hept-3-en-5-yl)-4-fluorophenyl)-3-chloro-5-methoxypicolinamide] | 0.0064 µM | 0.0341 µM | 956 µM |  |  | 41% |  | 8% |  |  |  |
| Cc1cc(Cl)cnc1C(=O)Nc1ccc(F)c([C@@]2(C(F)F)N=C(N)O[C@@H]3C[C@@H]32)c1 [Example 43, N-(3-((1R,5S,6R)-3-amino-5-(difluoromethyl)-2-oxa-4-azabicyclo[4.1.0]hept-3-en-5-yl)-4-fluorophenyl)-5-chloro-3-methylpicolinamide] | 0.0314 µM | 0.0225 µM | 596 µM | > 400 µM |  | 70% |  | 59% |  |  |  |
| C[C@@]1(c2cc(-c3cncnc3)c(F)cc2F)CCSC(N)=N1 [LY2811376, (S)-4-(2,4-difluoro-5-pyrimidin-5-yl-phenyl)-4-methyl-5,6-dihydro-4H-[1,3]thiazin-2-ylamine] |  |  |  |  |  |  |  |  | Prominent and long-lasting Aβ reductions | safe and well tolerated | profound Aβ-lowering effects |
| Cc1cc(NC(=O)c2ncc(Cl)cc2F)cc([C@@]2(C(F)F)N=C(N)O[C@@H]3C[C@@H]32)c1F [Example 302, N-(3-((1R,5S,6R)-3-amino-5-(difluoromethyl)-2-oxa-4-azabicyclo[4.1.0]hept-3-en-5-yl)-4-fluoro-5-methylphenyl)-5-chloro-3-fluoropicolinamide] | 0.0141 µM | 0.0315 µM | 811 µM |  |  | 37% |  | 9% |  |  |  |
| NC1=N[C@@](c2cc(NC(=O)c3cnc(OC(F)F)cn3)ccc2F)(C(F)F)[C@H]2C[C@H]2O1 [Example 238, N-(3-((1R,5S,6R)-3-amino-5-(difluoromethyl)-2-oxa-4-azabicyclo[4.1.0]hept-3-en-5-yl)-4-fluorophenyl)-5-(difluoromethoxy) pyrazine-2-carboxamide] | 0.0178 µM | 0.0214 µM | 5920 µM |  |  | 8% |  | 16% |  |  |  |
| COCc1cc(C#N)cnc1C(=O)Nc1ccc(F)c([C@@]2(C(F)F)N=C(N)O[C@@H]3C[C@@H]32)c1 [Example 391, N-(3-((1R,5S,6R)-3-amino-5-(difluoromethyl)-2-oxa-4-azabicyclo[4.1.0]hept-3-en-5-yl)-4-fluorophenyl)-5-cyano-3-(methoxymethyl)picolinamide] | 0.0175 µM | 0.0116 µM | 1350 µM |  |  | 54% |  | 24% |  |  |  |
| NC1=N[C@](CF)(c2cc(NC(=O)c3ncc(Cl)cc3Cl)ccc2Cl)[C@H]2C[C@H]2O1 [Example 281, N-(3-((1R,5S,6R)-3-amino-5-(fluoromethyl)-2-oxa-4-azabicyclo[4.1.0]hept-3-en-5-yl)-4-chlorophenyl)-3,5-dichloropicolinamide] | 0.006 µM | 0.0441 µM | 2870 µM |  | 55 (3 mpk) % | 70% | 34 (3 mpk) % | 72% |  |  |  |

The remaining compounds from weak to strong by IC50 [2], led by results:

| IC50 [2] | IC50 [3] | IC50 ([4]; read-out: CatD IC50) | IC50 ([4]; Cat D FRET assay, first procedure, read-out: Cat D IC50) | SMILES | % reduction of rat CSF levels (3 mpk) [1] | % reduction of rat CSF levels at 10 pmk [1] | % reduction of rat brain levels (3 mpk) [1] | % reduction of rat brain levels at 10 mpk [1] | Aβ reductions in lumbar CSF ([5]; oral dosing of 30 or 90 mg) | safety and tolerability [5] | Aβ-lowering effects [6] |
| --- | --- | --- | --- | --- | --- | --- | --- | --- | --- | --- | --- |
| 0.0386 µM | 0.0568 µM | 379 µM |  | COc1cnc(C(=O)Nc2ccc(F)c([C@@]3(C(F)F)N=C(N)O[C@@H]4C[C@@H]43)c2)c(Cl)c1 [Example 70, N-(3-((1R,5S,6R)-3-amino-5-(difluoromethyl)-2-oxa-4-azabicyclo[4.1.0]hept-3-en-5-yl)-4-fluorophenyl)-3-chloro-5-methoxypicolinamide] |  | 65% |  | 51% |  |  |  |
| 0.0302 µM | 0.0266 µM | 684 µM |  | NC1=N[C@@](c2cc(NC(=O)c3ccc(Cl)cn3)ccc2F)(C(F)F)[C@H]2C[C@H]2O1 [Example 76, N-(3-((1R,5S,6R)-3-amino-5-(difluoromethyl)-2-oxa-4-azabicyclo[4.1.0]hept-3-en-5-yl)-4-fluorophenyl)-5-chloropicolinamide] |  | 64% |  | 60% |  |  |  |
| 0.0256 µM | 0.0419 µM | 1040 µM |  | COc1cnc(C(=O)Nc2ccc(F)c([C@@]3(C(F)F)N=C(N)O[C@@H]4C[C@@H]43)c2)c(F)c1 [Example 306, N-(3-((1R,5S,6R)-3-amino-5-(difluoromethyl)-2-oxa-4-azabicyclo[4.1.0]hept-3-en-5-yl)-4-fluorophenyl)-3-fluoro-5-methoxypicolinamide] |  | 13% |  | −1% |  |  |  |
| 0.0103 µM | 0.0124 µM | 767 µM |  | NC1=N[C@@](c2cc(NC(=O)c3cnc(OCc4ncco4)cn3)ccc2F)(C(F)F)[C@H]2C[C@H]2O1 [Example 167, N-(3-((1R,5S,6R)-3-amino-5-(difluoromethyl)-2-oxa-4-azabicyclo[4.1.0]hept-3-en-5-yl)-4-fluorophenyl)-5-(oxazol-2-ylmethoxy)pyrazine-2-carboxamide] |  | 60% |  | 41% |  |  |  |
| 0.0078 µM | 0.0395 µM | 997 µM |  | N#Cc1cnc(C(=O)Nc2ccc(Cl)c([C@@]3(CF)N=C(N)O[C@@H]4C[C@@H]43)c2)c(Cl)c1 [Example 127] |  | 67% |  | 50% |  |  |  |
| 0.0075 µM | 0.031 µM | 1580 µM |  | Cc1cc(C#N)cnc1C(=O)Nc1ccc(Cl)c([C@@]2(CF)N=C(N)O[C@@H]3C[C@@H]32)c1 [Example 283, N-(3-((1R,5S,6R)-3-amino-5-(fluoromethyl)-2-oxa-4-azabicyclo[4.1.0]hept-3-en-5-yl)-4-chlorophenyl)-5-cyano-3-methylpicolinamide] | 61 (3 mpk) % | 75% | 44 (3 mpk) % | 69% |  |  |  |
| 0.0069 µM | 0.0352 µM | 1270 µM |  | N#Cc1cnc(C(=O)Nc2ccc(F)c([C@@]3(C(F)F)N=C(N)O[C@@H]4C[C@@H]43)c2)c(F)c1 [Example 388, N-(3-((1R,5S,6R)-3-amino-5-(difluoromethyl)-2-oxa-4-azabicyclo[4.1.0]hept-3-en-5-yl)-4-fluorophenyl)-5-cyano-3-fluoropicolinamide] |  | 21% |  | 4% |  |  |  |
| 0.0005 µM | 0.0022 µM | 959 µM |  | CC#CCOc1cnc(C(=O)Nc2ccc(F)c([C@@]3(CF)N=C(N)O[C@@H]4C[C@@H]43)c2)cn1 [Example 199, N-(3-((1R,5S,6R)-3-amino-5-(fluoromethyl)-2-oxa-4-azabicyclo[4.1.0]hept-3-en-5-yl)-4-fluorophenyl)-5-(but-2-yn-1-yloxy)pyrazine-2-carboxamide] |  | 62% |  | 42% |  |  |  |
